Source: patent US20220046919A1, “SYNERGISTIC INSECTICIDAL COMBINATIONS” (UPL LTD, priority 2019, published 2022)
Entries after “also recorded” stand apart in the source; their conditions may differ.

Key:
[1] = in vivo; cited from earlier work
[2] = cited from earlier work
[3] = tested on: Amrasca bigutula bigutula; experiment: Field trial: control of Jassids in infected Okra; assay type: in vivo; conditions: Denatonium Benzoate alone
Procedure: (§1) Field trials were conducted to study the effect of the combination of Denatonium benzoate with insecticides. The following three combinations were tested on the control of Jassids species Amrasca bigutula bigutula in the crop of infected Okra (Abelmoschus esculentum L) over the use of insecticides alone. • Denatonium benzoate+Flonicamid • Denatonium benzoate+Thiamethoxam • Denatonium benzoate+Imidacloprid
(§2) Both phytotoxicity and percentage control of the Jassids was measured.
T-1, T-2 and T-3 are the treatment with insecticidal combinations according to the present invention; T-4, T-5 and T-6 are the treatment with insecticides alone; T-7 and T-8 are the treatment with Denatonium benzoate (DB) liquid solutions alone and T-9 is the control.
Bio-efficacy of insecticidal combinations of the present invention against Jassids in infected Okra were evaluated. The percentage control of Jassids was measured. Efficacy was evaluated as: Excellent 91-100%, Very good 81-90%, Good 71-80%, Moderate 51-70%, Poor<50%.

[4] = tested on: Okra (Abelmoschus esculentum L); experiment: Phytotoxicity / crop safety on Okra in the field trial; assay type: in vivo; conditions: both application rates, 4 ml & 5 ml/lit of water
Procedure: as §1, §2
The safety of Denatonium Benzoate (DB) combinations according to present invention on Okra was evaluated. It is observed that the DB combinations according to the present invention are safe and no Phytotoxicity is observed.

CC[N+](CC)(CC(=O)Nc1c(C)cccc1C)Cc1ccccc1.O=C([O-])c1ccccc1 [Denatonium benzoate, phenylmethyl-[2-[(2,6-dimethylphenyl)amino]-2-oxoethyl]-diethylammonium benzoate]
human safety in clinical trials [1]: extremely human safe | concentration with generally recognized bitter taste ([2]; in vivo): 50 ppb | concentration detected by the average person ([2]; taste detection): 10 ppb | control of Jassids / insecticidal activity, in words [3]: no significant control of Jassids; also recorded: does not exhibit any insecticidal activity | Selectivity: crop safety on okra [4]: Good crop safety
